Measured values as given in US6399590B2, “Phosphoglycolipid and methods for its use” (Corixa Corporation, priority 1998, dated 2002).

Key:
[1] = test system: rabbits (fever response); test: Three rabbit USP pyrogen test; format: in vivo; set-up: key to Average Temperature Rise: body temperature rise in °F (decreases recorded as zero)
Procedure: The compound of the subject invention was evaluated for pyrogenicity using a standard three rabbit USP pyrogen test (NAMSA, Northwood Ohio) at dose levels between 10 and 1000 μg/kg. Three rabbits were intravenously administered the compound in 40% propylene glycol and 10% ethanol in water at varying doses diluted one to one in D5W prior to dosing. Each animal's body temperature was monitored over the course of 4 h. Pyrogenic doses and borderline pyrogenic doses were defined by established USP definitions. Any temperature decrease was recorded as a rise of zero. An individual rise in temperature of less than 0.5° F. was considered non-pyrogenic.

[2] = test system: canine model of repetitive transient regional ischemia; test: Myocardial stunning in dogs, repetitive transient regional ischemia; format: in vivo, dog
Procedure: The compound of the subject invention provided both an acute and delayed protective effect against cardiac stunning in dogs. Pretreatment of dogs with the compound of the subject invention 10 minutes and 24 hours prior to ischemia produced significant improvement in the recovery of regional segment shortening (%SS) in the ischemic-reperfused myocardium of anesthetized dogs subjected to a multiple ischemia/reperfusion stunning protocol. Dogs were subjected to five 5-minute periods of coronary artery occlusion interspersed with 10 minute periods of reperfusion and finally followed by 2 hours of reperfusion. Regional systolic shortening in the subendocardium of the ischemic area was determined by sonomicrometry by placing a set of piezoelectric crystals in the subendocardium approximately 10-15 mm apart. Regional myocardial blood flow was determined by the radioactive microsphere technique during the first 5 min occlusion period and at the end of 2 h of reperfusion. Hemodynamics and blood gases were also measured at various times throughout the experiment. There was no significant differences between the control and pretreated groups in body weight, left ventricular weight, area at risk weight or the area at risk as a % of the left ventricle. […]

[3] = test system: pig model of regional myocardial ischemia/reperfusion; test: Infarct size in pigs, 40 min LAD occlusion and 3 h reperfusion; format: in vivo; settings: i.v. 10 min prior to coronary artery occlusion (35 μg/kg); FIG. 4
Procedure: To assess the efficacy of L34 to reduce infarct size, nine pigs were assigned in a non-blinded fashion to one of four groups: (1) control (n=2), (2) vehicle control (n4), (3) L34 (35 μg/kg) (n=2), (4) L34 (70 μg/kg) (n=1). L34 was formulated in 10% ethanol, 40% propylene glycol in Water for Injection. Blinded studies were additionally conducted with eight pigs randomly assigned to one of two treatment groups: (1) A (n=4), (2) B (n=4). Group A and B were either vehicle control or L34. Vehicle or drug injection was diluted one to one with 5% dextrose in Water for Injection prior to administration.
Male pigs (15-20 kg) were anesthetized with ketamine (25 mg/kg, i.m.) and sodium pentobarbital (10 mg/kg, i.v.), intubated and mechanically ventilated with room air. Pigs were placed on a 37° C. circulating water heating pad. The left carotid artery of each animal was cannulated with 5Fr Millar catheter for measuring left ventricular pressure and the right carotid artery was cannulated with 24G I.V. catheter for sampling blood. A median sternotomy was performed and the pericardium was incised. […]
Following 40 min of occlusion, the snare was released and the myocardium was reperfused for 3 h. The hemodynamic parameters at certain time points were recorded and blood samples were collected. […]

CCCCCCCCCCCCCCCCCC(=O)O[C@H](CCCCCCCCCCC)CC(=O)N[C@H]1[C@H](OC[C@H]2OC(O)[C@H](NC(=O)C[C@@H](CCCCCCCCCCC)OC(=O)CCCCCCCCCCCCCCC)[C@@H](O)[C@@H]2O)O[C@H](CO)[C@@H](OP(=O)(O)O)[C@@H]1OC(=O)C[C@@H](CCCCCCCCCCC)OC(=O)CCCCCCCCCCCCC (stereo partly drawn) [L34, 2-Deoxy-6-O-[2-deoxy-4-O-phosphono-3-O-[(R)-3-tetradecanoyloxytetradecanoyl]-2-[(R)-3-octadecanoyloxytetradecanoylamino]-β-D-glucopyranosyl]-2-[(R)-3-hexadecanoyloxytetradecanoylamino]-D-glucopyranose]
Average Temperature Rise ([1]; L34 dose 10 μg/kg i.v.): 0.14
Average Temperature Rise ([1]; L34 dose 20 μg/kg i.v.): 0.17
Average Temperature Rise ([1]; L34 dose 30 μg/kg i.v.): 0.17
Average Temperature Rise ([1]; L34 dose 40 μg/kg i.v.): 0.00
Average Temperature Rise ([1]; L34 dose 60 μg/kg i.v.): 0.10
Average Temperature Rise ([1]; L34 dose 80 μg/kg i.v.): 0.13
Average Temperature Rise ([1]; L34 dose 120 μg/kg i.v.): 0.23
Average Temperature Rise ([1]; L34 dose 160 μg/kg i.v.): 0.17
Average Temperature Rise ([1]; L34 dose 240 μg/kg i.v.): 0.00
Average Temperature Rise ([1]; L34 dose 360 μg/kg i.v.): 0.30
Average Temperature Rise ([1]; L34 dose 480 μg/kg i.v.): 0.06
Average Temperature Rise ([1]; L34 dose 500 μg/kg i.v.): 0.12
Average Temperature Rise ([1]; L34 dose 1000 μg/kg i.v.): 0.10
pyrogenicity ([1]; i.v., dose levels between 10 and 1000 μg/kg): not pyrogenic at any of the doses tested
recovery of regional wall motion (%SS) vs control group ([2]; 24 h pretreatment, after 1st and 4th occlusion and all times of final 2 h reperfusion, FIG. 6): significantly greater recovery of regional wall motion (%SS)
recovery of regional wall motion (%SS) vs control group ([2]; pretreatment 10 min prior to first occlusion, after 1st, 2nd, 4th occlusion and all times of final 2 h reperfusion, FIG. 5): significantly greater recovery of regional wall motion (%SS)
reduction in infarct size expressed as % AN/AR in g compared to controls [3]: 46%
